Literature values as cited in patent publication US12280046B2, “Melanocortin subtype-2 receptor (MC2R) antagonist for the treatment of disease” (Crinetics Pharmaceuticals, Inc., priority 2021, dated 2025).
Starred links: 1 amine or outer side, 2 acyl side, 3 side chain; linkers in the order of their positions; H or OH if unused. Non-standard residues stand in square brackets, D forms with d. Residues, ends and D or L forms follow the SMILES beside them. Groups on a side chain read outwards from the residue. *: point of attachment. Ethylenediamine = C(CN[*:2])N[*:1]; Hyp = O=C(O)[C@@H]1C[C@@H](O)CN1; Phg = N[C@H](C(=O)O)c1ccccc1; CO = O=C([*:1])[*:2]; Bn = c1ccc(C*)cc1

Experiments:
[1] = assumption for full suppression curve; cited from earlier work
[2] = Phase 3 trial; cited from earlier work

SMILES | half-life [1] [h] | patients achieving normalization of urinary free cortisol [2] | patients with a hyperglycemia-related adverse event [2] [%]
C[C@]12CCC(=O)C=C1CC[C@@H]1[C@@H]2[C@@H](O)C[C@@]2(C)[C@H]1CC[C@]2(O)C(=O)CO [cortisol] | 1.1 ± 0.3 |  | 
NCCCC[C@@H]1NC(=O)[C@@H](Cc2c[nH]c3ccccc23)NC(=O)[C@H](c2ccccc2)NC(=O)[C@@H]2C[C@@H](OC(=O)NCCN)CN2C(=O)[C@H](Cc2ccccc2)NC(=O)[C@H](Cc2ccc(OCc3ccccc3)cc2)NC1=O [pasireotide] (cyclo([Hyp]([CO-Ethylenediamine])[Phg][dW]KY(Bn)F)) |  | 15-26% | 73
